Test results from patent publication US20060205637A1, “Fluoro-alkyl-cyclopeptide derivatives having anti-integrin activity” (Sigma-Tau Industrie Farmaceutiche Riunite S.p.A., priority 2002, published 2006).
Where two headings read alike, the source gives them in different places.

Assays:
[1] = system: bovine microvascular endothelial cells (BMEC)
Experimental: Microvascular endothelial cells from bovine adrenal glands (bovine microvascular endothelial cells—BMEC) were isolated from animals that had just been sacrificed and were stored in ice up to their arrival in the laboratory. In sterile conditions, the glands were washed in a solution of betadine for 5 minutes and then in 2 liters of sterile PBS. The glands were then cut with a disposable sterile lancet into fragments of approximately 2 mm and transferred to polystyrene Falcon tubes containing PBS (30 ml per gland). After centrifuging at 600 rpm in a centrifuge cooled to +4° C., the supernatant was decanted. The pellet was resuspended 1:2 with a 0.12% solution of collagenase A (Boehringer Mannheim) and incubated at 37° C. for 2 hours under stirring. After subsequent filtration on filters (Sigma), first of 200, and then 100 mesh, the supernatant was added to a solution of DMEM containing 15% FBS to inhibit the action of the collagenase A. The solution was centrifuged at 1000 rpm at room temperature and the precipitate resuspended in DMEM medium containing 20% FBS, 50 μg/ml of bovine brain extract (BBE), 50 μg/ml of heparin (Sigma), 0.5% v/v gentamicin (Sigma), and 1% v/v L-glutamine. The cells were seeded on Petri dishes gelatinised with 1% gelatin (Sigma porcine gelatin). At confluence, the cells were characterised with endothelial markers as Factor VIII.

[2] = system: SK-LMS-1 human leiomyosarcoma cells; assay: Cell adhesion assay on vitronectin, SK-LMS-1; type: cell-based; conditions: inhibition of cell adhesion to human vitronectin, 0.1 to 100 μM; read-out: SK-LMS1 IC50 ± SD
Experimental: SK-LMS-1 human leiomyosarcoma cells (ATCC) were grown in EMEM supplemented with 10% FCS, 2 mM L-glutamine and 50 μg/ml gentamicin.
(§1) 96-well plates were pretreated with 5 μg/ml of human vitronectin (Cal-biochem) for 12 hours at +4° C. BMEC or MeWo cells were detached with trypsin-EDTA, counted and plated on vitronectin substrate. The molecules were assayed at scalar concentrations ranging from 0.1 to 100 μM and co-incubated with the cells left to adhere. […] The adhereing cells were fixed with a 4% paraformaldehyde solution for 10 minutes at room temperature. The cells were then stained with a 1% toluidine blue solution for 10 minutes at room temperature. After staining, the cells were washed in double-distilled water, dried and solubilised with a 1% SDS solution. The cells were then quantified by means of absorbance reading on a Victor multilabel plate counter (Wal-lac) at 600 nm.
(§2) The evaluation parameter for the activity of the molecules was the value IC50±SD (μM).

integrin αvβ3 = target: T1, integrin αvβ3 (Homo sapiens, UniProt P05106+P06756); assay: Binding to integrin αvβ3 receptors ((125I) Echistatin displacement); conditions: for IC50: 0.05 nM (125I) Echistatin, 3-hour incubation, plate coated with 0.5 μg/ml integrin, read-out: αvβ3 IC50 ± SD
T1 construct: purchased Chemicon CC1020
Experimental: 96-well plates were subjected overnight to coating with 0.5 μg/ml of integrin αvβ3 (Chemicon, cat. CC1020). On the next day, the wells were washed and incubation was performed with 0.05 nM of (^125I) Echistatin (Amersham, cat. IM304) in the absence or presence of compounds according to the invention. After a 3-hour incubation and a series of washings, the integrin from each well bound to the radioactive substance was solubilised with NaOH 2N, and the radioactivity was then measured using a gamma counter. Non-specific binding, to be subtracted from all samples, was determined in the presence of Echistatin 1 μM.
(§3) The affinity of the compounds according to the present invention for vitronectin receptors was expressed as the IC50±SD value (nM) which is a parameter elaborated using “ALLFIT” software.

integrin αvβ5 = target: T2, integrin αvβ5 (Homo sapiens, UniProt P06756+P18084); assay: Binding to integrin αvβ5 receptors ((125I) Echistatin displacement); conditions: for IC50: 0.05 nM (125I) Echistatin, plate coated with 1 μg/ml integrin, read-out: αvβ5 IC50 ± SD
T2 construct: purchased Chemicon CC1022
Experimental: On the next day, the wells were washed and incubation was performed with 0.05 nM of(^125I) Echistatin (Amersham, cat. IM304) in the absence or presence of compounds according to the invention. The process then proceeded as described in the previous case.
as §3

[3] = system: Human melanoma MeWo cells; assay: Cell adhesion assay on vitronectin, MeWo; type: cell-based; conditions: inhibition of cell adhesion to human vitronectin, 0.1 to 100 μM; read-out: MeWo IC50 ± SD
Experimental: Human melanoma MeWo cells from the American Type Culture Collection (ATCC) were kept in culture in complete Eagle Minimal Essential Medium (EMEM) containing 10% FCS, 2 mM L-glutamine and 50 μg/ml gentamicin.
as §1, §2

T2 sequence (P06756 31-889 limits assumed): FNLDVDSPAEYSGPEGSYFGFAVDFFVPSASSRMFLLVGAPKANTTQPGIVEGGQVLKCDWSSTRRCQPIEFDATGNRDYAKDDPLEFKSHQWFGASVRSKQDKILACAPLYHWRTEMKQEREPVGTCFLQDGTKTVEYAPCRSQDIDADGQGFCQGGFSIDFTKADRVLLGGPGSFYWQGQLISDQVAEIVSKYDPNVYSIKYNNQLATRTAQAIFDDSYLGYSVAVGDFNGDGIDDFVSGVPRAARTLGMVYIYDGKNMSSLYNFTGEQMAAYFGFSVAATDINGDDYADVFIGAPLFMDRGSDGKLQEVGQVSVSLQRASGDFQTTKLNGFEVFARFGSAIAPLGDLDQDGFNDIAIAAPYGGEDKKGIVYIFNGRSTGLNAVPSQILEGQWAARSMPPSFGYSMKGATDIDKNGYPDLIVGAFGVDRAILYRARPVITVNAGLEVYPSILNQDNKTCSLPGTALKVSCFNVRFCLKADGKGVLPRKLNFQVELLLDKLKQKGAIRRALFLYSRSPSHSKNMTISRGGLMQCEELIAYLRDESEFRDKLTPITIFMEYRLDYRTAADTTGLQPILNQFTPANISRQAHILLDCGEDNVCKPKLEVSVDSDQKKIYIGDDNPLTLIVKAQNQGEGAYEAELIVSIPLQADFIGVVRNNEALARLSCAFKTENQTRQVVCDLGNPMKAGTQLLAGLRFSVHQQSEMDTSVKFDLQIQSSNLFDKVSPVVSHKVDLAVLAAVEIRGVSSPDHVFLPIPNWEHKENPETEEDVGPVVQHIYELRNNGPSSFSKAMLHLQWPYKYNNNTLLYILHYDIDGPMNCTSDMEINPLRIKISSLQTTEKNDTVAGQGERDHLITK
T2 sequence (P06756 891-1048 partner limits assumed): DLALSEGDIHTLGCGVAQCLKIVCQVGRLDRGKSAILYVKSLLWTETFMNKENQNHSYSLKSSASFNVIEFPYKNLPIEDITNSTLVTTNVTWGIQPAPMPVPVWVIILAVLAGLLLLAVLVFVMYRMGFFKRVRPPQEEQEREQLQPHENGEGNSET
T2 sequence (P18084 24-799): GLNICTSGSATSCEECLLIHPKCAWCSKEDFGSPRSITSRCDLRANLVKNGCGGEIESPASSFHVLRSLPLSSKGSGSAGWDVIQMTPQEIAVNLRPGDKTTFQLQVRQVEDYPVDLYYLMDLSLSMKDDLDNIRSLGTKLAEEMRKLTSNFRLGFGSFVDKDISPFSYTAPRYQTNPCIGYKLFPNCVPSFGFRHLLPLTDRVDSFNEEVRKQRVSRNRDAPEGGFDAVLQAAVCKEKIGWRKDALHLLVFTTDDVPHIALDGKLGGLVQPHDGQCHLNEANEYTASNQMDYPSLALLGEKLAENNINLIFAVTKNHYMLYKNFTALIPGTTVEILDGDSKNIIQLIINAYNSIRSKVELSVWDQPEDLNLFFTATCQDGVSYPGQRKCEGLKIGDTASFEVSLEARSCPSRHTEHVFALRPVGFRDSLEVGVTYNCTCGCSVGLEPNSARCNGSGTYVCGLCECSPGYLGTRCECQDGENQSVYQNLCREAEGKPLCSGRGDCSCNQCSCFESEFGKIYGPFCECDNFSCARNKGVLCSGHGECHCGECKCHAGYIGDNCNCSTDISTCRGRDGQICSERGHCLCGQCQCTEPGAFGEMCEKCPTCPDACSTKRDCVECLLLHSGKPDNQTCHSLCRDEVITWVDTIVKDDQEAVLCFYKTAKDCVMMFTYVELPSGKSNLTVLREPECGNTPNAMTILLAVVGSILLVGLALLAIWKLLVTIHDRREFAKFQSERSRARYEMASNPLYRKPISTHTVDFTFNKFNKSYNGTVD
T1 sequence (P06756 31-889 limits assumed): as the sequence (P06756 31-889 limits assumed) above
T1 sequence (P06756 891-1048 partner limits assumed): as the sequence (P06756 891-1048 partner limits assumed) above
T1 sequence (P05106 27-788): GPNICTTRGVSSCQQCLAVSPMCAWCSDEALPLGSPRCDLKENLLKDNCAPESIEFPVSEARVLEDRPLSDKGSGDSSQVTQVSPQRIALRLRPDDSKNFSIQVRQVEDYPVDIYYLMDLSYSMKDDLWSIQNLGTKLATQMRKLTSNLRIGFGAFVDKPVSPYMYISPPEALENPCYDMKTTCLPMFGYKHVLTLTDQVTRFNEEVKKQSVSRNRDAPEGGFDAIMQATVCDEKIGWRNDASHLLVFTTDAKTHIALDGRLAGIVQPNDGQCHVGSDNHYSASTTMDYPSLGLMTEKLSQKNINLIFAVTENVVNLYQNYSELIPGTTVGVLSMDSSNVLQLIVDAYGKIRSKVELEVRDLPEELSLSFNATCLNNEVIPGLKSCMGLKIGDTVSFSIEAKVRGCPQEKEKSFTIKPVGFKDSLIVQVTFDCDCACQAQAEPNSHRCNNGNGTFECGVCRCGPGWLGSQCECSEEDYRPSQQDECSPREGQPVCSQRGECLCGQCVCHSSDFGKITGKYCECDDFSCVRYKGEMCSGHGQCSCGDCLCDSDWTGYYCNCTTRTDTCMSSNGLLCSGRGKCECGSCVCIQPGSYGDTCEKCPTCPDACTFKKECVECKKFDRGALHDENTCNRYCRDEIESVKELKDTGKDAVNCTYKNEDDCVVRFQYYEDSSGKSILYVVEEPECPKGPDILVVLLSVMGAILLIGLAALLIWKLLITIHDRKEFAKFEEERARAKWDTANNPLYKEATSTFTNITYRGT

IC50 (integrin αvβ3) [µM]	IC50 (integrin αvβ5) [µM]	Compound	IC50 [1] [µM]	IC50 [3] [µM]	other results
		CC(C)C1(C(F)(F)F)NC(=O)[C@@H](Cc2ccccc2)NC(=O)[C@H](CC(=O)O)NC(=O)CNC(=O)[C@H](CCCNC(=N)N)NC1=O (single isomer, unassigned) [ST2409, c(Arg-Gly-Asp-D-Phe-(R or S)-Tfm-Val)]	12.5 ± 1.5		IC50 [2]: 15.9 ± 1.6 µM
0.332 ± 0.101	0.0055 ± 0.0008	c(Arg-Gly-Asp-D-Phe-(R,S)-Dfm-Phe) [ST1932]		13.9 ± 4.3	IC50 ([1]; read-out: BMEC IC50 ± SD, inhibition of cell adhesion to human vitronectin, 0.1 to 100 μM): 14.2 ± 1 µM
		CC(C)C1(C(F)(F)F)NC(=O)[C@@H](Cc2ccccc2)NC(=O)[C@H](CC(=O)O)NC(=O)CNC(=O)[C@H](CCCNC(=N)N)NC1=O (single isomer, unassigned) [ST2410, c(Arg-Gly-Asp-D-Phe-(R or S)-Tfm-Val)]	77.6 ± 7.2		IC50 [2]: > 100 µM
> 10	> 10	CC(C)[C@@H]1NC(=O)[C@@H](Cc2ccccc2)NC(=O)C(CC(=O)O)(C(F)(F)F)NC(=O)CNC(=O)[C@H](CCCNC(=N)N)NC1=O (single isomer, unassigned) [ST2189, c(Arg-Gly-(R or S)-Tfm-Asp-D-Phe-Val)]			
		CN1C(=O)[C@@H](Cc2ccccc2)NC(=O)[C@H](CC(=O)O)NC(=O)CNC(=O)[C@H](CCCNC(=N)N)NC(=O)C1(Cc1ccccc1)C(F)(F)F (single isomer, unassigned) [ST2552, c(Arg-Gly-Asp-D-Phe-(R or S)—N-Me-Tfm-Phe)]	> 100	0.33 ± 0.05	binding affinity for vitronectine receptor αvβ3 (in words) (integrin αvβ3): high binding affinity; binding affinity for vitronectine receptor αvβ5 (in words) (integrin αvβ5): high binding affinity
		N=C(N)NCCC[C@@H]1NC(=O)C(Cc2ccccc2)(C(F)(F)F)NC(=O)[C@@H](Cc2ccccc2)NC(=O)[C@H](CC(=O)O)NC(=O)CNC1=O (single isomer, unassigned) [ST1930, C(Arg-Gly-Asp-D-Phe-(R or S)-Tfm-Phe)]	8.9 ± 0.4	6.9 ± 1.3	
> 10	> 10	CC(C)[C@@H]1NC(=O)[C@@H](Cc2ccccc2)NC(=O)C(CC(=O)O)(C(F)(F)F)NC(=O)CNC(=O)[C@H](CCCNC(=N)N)NC1=O (single isomer, unassigned) [ST2190, c(Arg-Gly-(R or S)-Tfm-Asp-D-Phe-Val)]			

Compound	IC50 (integrin αvβ3) [µM]	IC50 (integrin αvβ5) [µM]	IC50 [1] [µM]	IC50 [3] [µM]	other results
CC(C)[C@@H]1NC(=O)C(Cc2ccccc2)(C(F)(F)F)NC(=O)[C@H](CC(=O)O)NC(=O)CNC(=O)[C@H](CCCNC(=N)N)NC1=O (single isomer, unassigned) [ST2192, c(Arg-Gly-Asp-(R o S)-Tfm-Phe-Val)]	1.02 ± 0.348	0.0727 ± 0.0038	> 100		
CC(C)[C@@H]1NC(=O)C(Cc2ccccc2)(C(F)(F)F)NC(=O)[C@H](CC(=O)O)NC(=O)CNC(=O)[C@H](CCCNC(=N)N)NC1=O (single isomer, unassigned) [ST2191, c(Arg-Gly-Asp-(R o S)-Tfm-Phe-Val)]	0.237 ± 0.064	0.01 ± 0.0019	18.8 ± 4.4	21.9 ± 2.5	
